Results published in PubChem BioAssay AID256 (DTP/NCI, 2004).
Where “and” joins values, the source holds several entries; their conditions need not be identical. Identical values can stand only once. Toxic doses and inconclusive results are not listed. How the source made its calls: active means survival T/C of 150% or more; inactive means T/C below 125% in these data.

Tested on: CD2F1 mice, L1210 leukemia ip, survival T/C
Test: NCI In Vivo Anticancer Drug Screen. Data for tumor model L1210 Leukemia (intraperitoneal) in CD2F1 (CDF1) mice
Details: higher = longer survival
Outline: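 Tumor-bearing mice (transplanted tumor) were split into treated and vehicle control groups, and the measured endpoint of each treated group was divided by that of its vehicle controls.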

[1] = endpoint: mean survival time, dose: 100.0 mg/kg/injection, schedule: Q01DX001 (ip), vehicle: saline with Tween-80
[2] = endpoint: mean survival time, dose: 200.0 mg/kg/injection, schedule: Q01DX001 (ip), vehicle: saline with Tween-80
[3] = endpoint: mean survival time, dose: 400.0 mg/kg/injection, schedule: Q01DX001 (ip), vehicle: saline with Tween-80
[4] = endpoint: mean survival time, dose: 100.0 mg/kg/injection, schedule: Q04DX003 (ip), vehicle: saline with Tween-80
[5] = endpoint: mean survival time, dose: 200.0 mg/kg/injection, schedule: Q04DX003 (ip), vehicle: saline with Tween-80
[6] = endpoint: mean survival time, dose: 400.0 mg/kg/injection, schedule: Q04DX003 (ip), vehicle: saline with Tween-80
[7] = endpoint: mean survival time, dose: 100.0 mg/kg/injection, schedule: Q04DX002 (ip), vehicle: saline with Tween-80
[8] = endpoint: mean survival time, dose: 200.0 mg/kg/injection, schedule: Q04DX002 (ip), vehicle: saline with Tween-80
[9] = endpoint: mean survival time, dose: 400.0 mg/kg/injection, schedule: Q04DX002 (ip), vehicle: saline with Tween-80

Measured: T/C

CO[C@H]1Nc2c(ccc(C)c2O)C(=O)N2C=C(/C=C/C(N)=O)C[C@@H]12
inactive: endpoint: mean survival time, dose: 0.1 mg/kg/injection, schedule: Q01DX015 (ip), vehicle: saline 111 % of control | endpoint: mean survival time, dose: 0.2 mg/kg/injection, schedule: Q01DX015 (ip), vehicle: saline 119 % of control | endpoint: mean survival time, dose: 0.25 mg/kg/injection, schedule: Q01DX009 (ip), vehicle: saline sonified 106 % of control | endpoint: mean survival time, dose: 0.36 mg/kg/injection, schedule: Q01DX015 (ip), vehicle: saline 120 % of control | endpoint: mean survival time, dose: 0.5 mg/kg/injection, schedule: Q01DX009 (ip), vehicle: saline sonified 104 % of control | endpoint: mean survival time, dose: 1.0 mg/kg/injection, schedule: Q01DX009 (ip), vehicle: saline sonified 91 % of control | endpoint: mean survival time, dose: 1.0 mg/kg/injection, schedule: Q04DX003 (ip), vehicle: saline with Tween-80 117 % of control | endpoint: mean survival time, dose: 1.5 mg/kg/injection, schedule: Q04DX003 (ip), vehicle: saline with Tween-80 118 % of control | endpoint: mean survival time, dose: 25.0 micrograms/kg/injection, schedule: Q01DX009 (ip), vehicle: saline with Tween-80 108 % of control | endpoint: mean survival time, dose: 50.0 micrograms/kg/injection, schedule: Q01DX009 (ip), vehicle: saline with Tween-80 117 % of control | endpoint: mean survival time, dose: 100.0 micrograms/kg/injection, schedule: Q01DX009 (ip), vehicle: saline with Tween-80 109 % of control | endpoint: mean survival time, dose: 200.0 micrograms/kg/injection, schedule: Q01DX009 (ip), vehicle: saline with Tween-80 117 % of control | endpoint: median survival time, dose: 0.01 mg/kg/injection, schedule: Q01DX005 (ip), vehicle: DMSO 102 % of control | endpoint: median survival time, dose: 0.02 mg/kg/injection, schedule: Q01DX005 (ip), vehicle: DMSO 117 % of control | endpoint: median survival time, dose: 0.04 mg/kg/injection, schedule: Q01DX005 (ip), vehicle: DMSO 118 % of control

Fc1c(F)c(F)c(Nc2c(F)c(F)c3c(F)c(F)c(F)c(F)c3c2F)c(F)c1F
inactive: [1] 98 % of control | [2] 96 % of control | [3] 98 % of control

CC(=O)N(C(C)=O)c1ccccc1
inactive: [4] 97 % of control | [5] 97 % of control | [6] 103 % of control

Cc1cc(C)c(NC(=O)CC#N)cc1C
inactive: endpoint: mean survival time, dose: 25.0 mg/kg/injection, schedule: Q04DX003 (ip), vehicle: saline with Tween-80 113 % of control and 93 % of control | endpoint: mean survival time, dose: 50.0 mg/kg/injection, schedule: Q04DX003 (ip), vehicle: saline with Tween-80 89 % of control and 103 % of control | [1] 100 % of control | [7] 90 % of control | [2] 102 % of control | [8] 102 % of control | [3] 102 % of control | [9] 105 % of control | [6] 93 % of control

CC(=O)Nc1ccccc1OC(=O)OCC(Cl)(Cl)Cl
inactive: endpoint: mean survival time, dose: 100.0 mg/kg/injection, schedule: Q01DX009 (ip), vehicle: saline with Tween-80 96 % of control | endpoint: mean survival time, dose: 200.0 mg/kg/injection, schedule: Q01DX009 (ip), vehicle: saline with Tween-80 96 % of control | endpoint: mean survival time, dose: 400.0 mg/kg/injection, schedule: Q01DX009 (ip), vehicle: saline with Tween-80 101 % of control

COc1ccc(COC(=O)Nc2ccccc2[N+](=O)[O-])cc1
inactive: [7] 91 % of control | [8] 87 % of control | [9] 91 % of control

O=[N+]([O-])c1ccc(N/N=C/c2ccccn2)cc1
inactive: endpoint: mean survival time, dose: 100.0 mg/kg/injection, schedule: Q04DX003 (ip), vehicle: Klucel (hydroxypropylcellulose) (HPC) 96 % of control | endpoint: mean survival time, dose: 200.0 mg/kg/injection, schedule: Q04DX003 (ip), vehicle: Klucel (hydroxypropylcellulose) (HPC) 89 % of control | endpoint: mean survival time, dose: 400.0 mg/kg/injection, schedule: Q04DX003 (ip), vehicle: Klucel (hydroxypropylcellulose) (HPC) 94 % of control

O=c1ccn(C2CC(O)C(CO)O2)cc1 (stereo not given)
inactive: endpoint: mean survival time, dose: 100.0 mg/kg/injection, schedule: Q01DX005 (ip), vehicle: saline 101 % of control | endpoint: mean survival time, dose: 200.0 mg/kg/injection, schedule: Q01DX005 (ip), vehicle: saline 100 % of control

O=C(NNC(=O)NC1OCC(O)C(O)C1O)Nc1ccccc1 (stereo not given)
inactive: [4] 101 % of control | [5] 98 % of control | [6] 98 % of control

N/C(=N\OC(=O)Nc1ccc(CSc2ccc(Cl)cc2)o1)c1ccccn1
inactive: endpoint: median survival time, dose: 12.5 mg/kg/injection, schedule: Q01DX009 (ip), vehicle: Klucel (hydroxypropylcellulose) (HPC) 98 % of control | endpoint: median survival time, dose: 25.0 mg/kg/injection, schedule: Q01DX009 (ip), vehicle: Klucel (hydroxypropylcellulose) (HPC) 103 % of control | endpoint: median survival time, dose: 50.0 mg/kg/injection, schedule: Q01DX009 (ip), vehicle: Klucel (hydroxypropylcellulose) (HPC) 102 % of control | endpoint: median survival time, dose: 100.0 mg/kg/injection, schedule: Q01DX009 (ip), vehicle: Klucel (hydroxypropylcellulose) (HPC) 102 % of control | endpoint: median survival time, dose: 200.0 mg/kg/injection, schedule: Q01DX009 (ip), vehicle: Klucel (hydroxypropylcellulose) (HPC) 95 % of control

COc1ccc(C2=CC(c3ccccc3)C(c3ccccc3)C(=O)N2)cc1 (stereo not given)
inactive: endpoint: mean survival time, dose: 25.0 mg/kg/injection, schedule: Q04DX002 (ip), vehicle: saline with Tween-80 98 % of control | [8] 97 % of control | [9] 90 % of control

CCCCCCCCCCSC(=N)N
inactive: endpoint: mean survival time, dose: 6.25 mg/kg/injection, schedule: Q01DX001 (ip), vehicle: Klucel (hydroxypropylcellulose) (HPC) 102 % of control | endpoint: mean survival time, dose: 12.5 mg/kg/injection, schedule: Q01DX001 (ip), vehicle: Klucel (hydroxypropylcellulose) (HPC) 112 % of control | endpoint: mean survival time, dose: 25.0 mg/kg/injection, schedule: Q01DX001 (ip), vehicle: Klucel (hydroxypropylcellulose) (HPC) 96 % of control
